Laboratory results reported in patent US11464787B2, “Composition comprising oleanolic acid acetate as active ingredient for preventing, alleviating, or treating renal toxicity induced by medicine” (Korea Research Institute of Bioscience and Biotechnology, priority 2016, dated 2022).

Key:
HEK-293T cells = test: MTT assay cytotoxicity in HEK-293T human embryonic kidney cells; conditions: for cell survival rate: HEK-293T, highest concentration of 1000 μg/ml, 24 hours
Method: HEK-293T cells, human embryonic kidney cells, were cultured in Dulbecco's modified eagle medium (Cat No. 12800-017, Gibco, USA) supplemented with heat-inactivated 10% FBS.
The survival rate of cultured cells was measured by MTT reduction method. As an MTT solution, formazan was formed by mitochondrial dehydrogenases in living cells to confirm cell viability. […] After 24 hours, 20 μl of MTT solution was added to each well, followed by further culturing for 2 hours. Then, the culture solution was removed, and 100 μl of dimethylsulfoxide was added thereto. The absorbance thereof was measured at 570 nm.

peritoneal macrophages = test: MTT assay cytotoxicity in mouse peritoneal macrophages; assay type: cell-based; conditions: for cell survival rate: maximum concentration of 1000 μg/ml, 24 hours
Method: For the isolation of peritoneal macrophage of mice, 3 ml of 3% thioglycollate medium was administered intraperitoneally to 5-6 week old ICR male mice (Oriental Bio, Seoul, Korea). After 3 days, 6 ml to 7 ml of PBS was administered intraperitoneally, followed by a massage of peritoneal cavity to collect the peritoneal fluid. The collected peritoneal fluid was centrifuged and suspended in RPMI (10% FBS, 1% antibiotics), transferred to a plate, and stabilized at 37° C. for 2 hours.
(§1) The absorbance thereof was measured at 570 nm.

spleen cells = test: MTT assay cytotoxicity in mouse spleen cells; assay type: cell-based; conditions: all concentrations (100, 300, and 600 μg/ml)
Method: For the isolation of mouse spleen cells, 5-6 week old ICR male mice (Oriental Bio, Seoul, Korea) were sacrificed with CO2 and then their spleen was aseptically extracted. The spleen was ground with a filter to separate single spleen cells, centrifuged using centrifugation, and erythrocytes were dissolved using ficoll. Cells from which erythrocytes had been removed were stabilized with RPMI (10% FBS, 1% antibiotics) at 37° C. for 2 hours.
as §1

IL-6 [1] = test: Kidney tissue IL-6 mRNA expression by real-time PCR in cisplatin-induced nephrotoxicity model; assay type: in vivo, C57BL/6 male mice; conditions: cisplatin and oleanolic acid acetate (50 mg/Kg)-treated group
Method: (§2) For the experiment, the mice were kept under constant temperature (23±3° C.), humidity (55±15%) and light irradiation (7:00 to 19:00). After the purchase, the mice were stabilized in the SPF animal breeding room for 1 week and used in the experiment.
(§3) After the mouse sacrifice, kidneys were separated and homogenized by adding Trizol reagent (Invitrogen, Carlsbad, Calif., USA). To this, chloroform was added to extract RNA, and isopropanol was added to precipitate. After the RNA precipitate was washed with 75% ethanol, the RNA concentration and purity were measured with a 2100 Bioanalyzer System (Agilent Technologies, Santa Clara, Calif., USA), and Taqman reverse transcription reagents kit (Applied Biosystems, Foster City) was used to synthesize cDNA. The expression level of inflammatory factors was measured by real-time PCR using SYBR Green PCR master mix kit (Applied Biosystem, Foster City, Calif., USA).
(§4) In order to examine the expression levels of TNF-α and IL-6, inflammatory cytokines, COX-2, a prostaglandin E2 (PGE2) synthase involved in increasing the vascular permeability of the inflammatory response, and MCP-1, an inflammatory chemokine, Real-time PCR was performed on each gene.

[2] = test system: cisplatin-induced nephrotoxicity; test: Cisplatin-induced nephrotoxicity animal model: body weight, kidney weight, death rate, BUN; assay type: in vivo, C57BL/6 male mice
Method: as §2
After the mouse sacrifice, the body weight was measured, the kidney was isolated, the blood was collected from the heart, and the blood urea nitrogen (BUN), a biochemical indicator related to nephrotoxicity, was measured. The collected mouse blood was centrifuged at 3000 rpm and 4° C. for 15 minutes using a centrifuge to separate the only serum, and the BUN was measured using an automatic analyzer (Fuji Dry-Chem NX500i, Tokyo, Japan).
The death rate was expressed as a percentage by dividing the number of mice killed in each group by the total number of mice.

TNF-α [3] = test: Kidney tissue TNF-α mRNA expression by real-time PCR in cisplatin-induced nephrotoxicity model; assay type: in vivo, C57BL/6 male mice; conditions: cisplatin and oleanolic acid acetate (50 mg/Kg)-treated group
Method: as §2, §3, §4

COX-2 = test: Kidney tissue COX-2 mRNA expression by real-time PCR in cisplatin-induced nephrotoxicity model; assay type: in vivo, C57BL/6 male mice; conditions: cisplatin and oleanolic acid acetate (50 mg/Kg)-treated group
Method: as §2, §3, §4

MCP-1 = test: Kidney tissue MCP-1 mRNA expression by real-time PCR in cisplatin-induced nephrotoxicity model; assay type: in vivo, C57BL/6 male mice; conditions: cisplatin and oleanolic acid acetate (50 mg/Kg)-treated group
Method: as §2, §3, §4

TNF-α [4] = test: Blood TNF-α by ELISA in cisplatin-induced nephrotoxicity model; assay type: in vivo, C57BL/6 male mice; conditions: cisplatin and oleanolic acid acetate (50 mg/Kg)-treated group, serum ELISA
Method: as §2
(§5) In order to measure inflammatory cytokines in the blood (TNF-α and IL-6), serum was separated and used from blood, and TNF-α and IL-6 were measured using a mouse ELISA kit (R&D system, Minneapolis, Minn., USA). ELISA color development was measured using a Varioskan™ LUX multimode microplate reader (Thermofisher, Sunnyvale, Calif., USA) at a wavelength of 450 nm.

IL-6 [5] = test: Blood IL-6 by ELISA in cisplatin-induced nephrotoxicity model; assay type: in vivo, C57BL/6 male mice; conditions: cisplatin and oleanolic acid acetate (50 mg/Kg)-treated group, serum ELISA
Method: as §2, §5

Row | SMILES | cell survival rate (HEK-293T cells) [%] | cytotoxicity (in words) (peritoneal macrophages) | cell survival rate (peritoneal macrophages) [%] | cytotoxicity (in words) (HEK-293T cells; human kidney cell lines, compared with oleanolic acid) | cell survival rate compared with oleanolic acid (in words) (spleen cells) | amount of mRNA expression of IL-6 (IL-6 [1]) | death rate ([2]; cisplatin 20 mg/kg i.p. and oleanolic acid acetate 50 mg/Kg orally, mice) [%] | BUN value ([2]; cisplatin and oleanolic acid acetate (50 mg/Kg oral)-treated group, serum, day 5, vs cisplatin group) | amount of mRNA expression of TNF-α (TNF-α [3]) | amount of mRNA expression of COX-2 (COX-2) | amount of mRNA expression of MCP-1 (MCP-1) | TNF-α in the blood (TNF-α [4]) | IL-6 in the blood (IL-6 [5])
1 | CC1(C)CC[C@]2(C(=O)O)CC[C@]3(C)C(=CC[C@@H]4[C@@]5(C)CC[C@H](O)C(C)(C)[C@@H]5CC[C@]43C)[C@@H]2C1 [oleanolic acid] | 27 | cytotoxicity in a concentration-dependent manner | 41 |  |  |  |  |  |  |  |  |  | 
2 | CC(=O)O[C@H]1CC[C@@]2(C)C(CC[C@]3(C)[C@@H]2CC=C2[C@H]4CC(C)(C)CC[C@]4(C(=O)O)CC[C@]23C)C1(C)C (stereo partly drawn) [oleanolic acid acetate, 4aS,6aR,6aS,6bR,8aR,10S,12aR,14bS-10-hydroxy-2,2,6a,6b,9,9,12a-heptamethyl-1,3,4,5,6,6a,7,8,8a,10,11,12,13,14b-tetradecahydropicene-4a-carboxylic acid acetate] | 43 | almost no cytotoxicity | 81 | concentration-dependently less than that of oleanolic acid | higher cell survival rate than that of oleanolic acid | decreased | 44 | decreased | decreased | decreased | decreased | decreased | decreased
